# Data reported in publication PMC9943626, “CS27109, A Selective Thyroid Hormone Receptor-β Agonist Alleviates Metabolic-Associated Fatty Liver Disease in Murine Models” (International Journal of Endocrinology, 2023).
# Like-named read-outs stand apart in the source and are kept apart here.
# Columns and labels:
# [1] = tested on: HFD-CHOL hamster model; experiment: HFD-CHOL hamster model, serum biochemical test; format: in vivo, golden hamster; conditions: 10 mg/kg (CS27109-M, MGL-3196) oral once a day 4 weeks, mean ± SD
# Experimental: Hamster study: 58 golden hamsters ♂ aged 6–8 weeks were purchased from Beijing Vital River Laboratory Animal Technology Co., Ltd. 10 animals were kept with a diet of food control as normal control, and the other 48 animals were fed 40% fat and 1.25% cholesterol (HFD-CHOL, D12108C, Research diet) as a model group. […] Animals in the normal and model group were given solvent by oral gavage. All drugs, including solvent, were administered consecutively for 4 weeks and once a day. After sacrifice, blood was collected and serum was isolated for the AST, ALT, TG, TC, LDL-c, and HDL-c test.
# [2] = Tissue distribution in SD rat; format: in vivo; conditions: for concentration at 2 h / concentration at 8 h: male, 10 mg/kg oral gavage once
# Source text: [Worded in the source for another organism; this organism is reported under the same test.] Half of mice for each group (n = 3) were sacrificed 2H and 8H after drug administration, respectively. Blood, heart, and liver were collected at each time point. Blood was processed and detected as mentioned previously. The heart and liver were homogenized and added extractant. The protein of tissue samples was precipitated by vortex oscillation, and the supernatant was collected and determined by LC-MS/MS procedures.
# [3] = Observation of diarrhea in treated animals; format: in vivo, rodents; conditions: animal studies
# [4] = tested on: HFD SD rat model; experiment: HFD SD rat model, biochemical, organ weight ratio, liver lipid and liver pathology; format: in vivo
# Experimental: SD rat study: 58 SD rats ♂ aged 5–6 weeks were purchased from Beijing Huafukang Biotechnology Co., Ltd. 9 animals were kept with a food control diet as normal control, and the other 49 animals were fed 40% fat, 1.25% cholesterol and 0.5% sodium cholate (HFD, D12109C, SYSE BIO, Changzhou, China) as a model group. […] Animals in the normal and model groups were given solvent by oral gavage. All drugs, including solvent, were administered consecutively for 4 weeks and once a day. After sacrifice, blood was collected and serum was isolated for the AST, ALT, TG, TC, LDL-c, and HDL-c test, and livers and hearts were weighed to calculate the liver weight ratio and the heart weight ratio, respectively. The right lobe of the liver of each rat was harvested for the TG and TC test (A110-1-1 and A111-1-1, Nanjing Jiancheng Institute of Bioengineering, Nanjing, China) according to the manufacturer's instructions. The left lobe of the liver was collected for hematoxylin-eosin staining (H and E staining) to quantify liver steatosis, inflammation, and ballooning.
# (§1) The liver samples were fixed in 10% formalin and embedded in paraffin using standard methods. The 4 μm paraffin sections were then assessed for liver histology by H and E staining and liver fibrosis by sirius red staining. The stained sections were panoramic scanned with a NanoZoomer Digital Pathology scanner (S210, Hamamatsu, Japan), and then observed with different visual fields at different magnifications, and scored for different liver lobes in the sections. The total NAS score represents the sum of the scores for steatosis (0–3), lobular inflammation (0–3), and ballooning (0–2), and ranges from 0–8 [30]. VIS7.0 software was used to analyze the area of liver fibrosis in the panoramic scanning SR staining sections, and the percentage of liver fibrosis area in the whole section area was calculated.
# [5] = tested on: WD + CCL4 mouse model; experiment: WD + CCL4 mouse model, biochemical, liver weight ratio and liver pathology; format: in vivo, C57/B6 mouse
# Experimental: C57/B6 mouse study: 61 C57/B6 mice ♂ aged 6–7 weeks were purchased from Beijing Vital River Laboratory Animal Technology Co., Ltd. Six animals were kept with a chow diet as normal control, and the other 55 animals were fed 60% fat diet (Western diet, D12492, Research diet) as the model group. […] Animals in the normal and model groups were given solvent by oral gavage. All drugs, including solvent, were administered consecutively for 4 weeks and once a day. After sacrifice, blood was collected and serum was isolated for the AST, ALT, TG, TC, LDL-c, HDL-c, and CK tests, and the livers were weighed to calculate the liver weight ratio. The left lobe of the liver of each mouse was collected for hematoxylin-eosin staining (H and E staining) and sirius red staining.
# as §1
# [6] = heart, read-out: Heart concentration
# [7] = liver, read-out: Liver concentration
# [8] = serum, read-out: Serum concentration
# [9] = WD + CCL4 mouse, 4 weeks, MGL3196 10 mg/kg, CS27109 high-dose (30 mg/kg), vs model
smiles,measurement,setting,value
"CC(C)c1cc(Oc2c(Cl)cc(-n3nc(C#N)c(=O)[nH]c3=O)cc2Cl)n[nH]c1=O [MGL3196, 2-[3,5-dichloro-4-(5-isopropyl-6-oxo-1,6-dihydropyridazin-3-yloxy)phenyl]-3,5-dio xo-2,3,4,5-tetrahydro[1,2,4]triazine-6-carbonitrile, reference compound]",HDL-c,"[1]; model 3.6 ± 1.1, normal 1.6 ± 0.45",2.9 ± 0.36 mmol/L
same,LDL-c,"[1]; model 17 ± 6.1, normal 1.3 ± 0.54",8.6 ± 3.3 mmol/L
same,TG,"[1]; model 26 ± 24, normal 2.1 ± 1.1",5.9 ± 5.6 mmol/L
same,TC,"[1]; model 37 ± 13, normal 3.1 ± 0.72",18 ± 6.3 mmol/L
same,ALT,"[1]; model 278 ± 174, normal 94 ± 58",206 ± 47 U/L
same,AST,"[1]; model 638 ± 323, normal 98 ± 45",752 ± 261 U/L
same,average of concentration liver/heart,"[2]; 10 mg/kg oral, average of 2H and 8H",22.325
same,concentration at 2 h,[2]; [6],156 ng/g
same,concentration at 8 h,[2]; [6],128 ng/g
same,concentration at 2 h,[2]; [7],3850 ng/g
same,concentration at 8 h,[2]; [7],2550 ng/g
same,concentration at 2 h,[2]; [8],1400 ng/mL
same,concentration at 8 h,[2]; [8],506 ng/mL
same,diarrhea in treated animals,[3],exhibit diarrhea
same,Liver TC,"[4]; HFD SD rat liver, 15 mg/kg (CS27109-M, MGL-3196) oral once a day 4 weeks, mean ± SD, model 13 ± 2.2, normal 6.0 ± 0.76",12 ± 1.7 µmol/g
same,Liver TG,"[4]; HFD SD rat liver, 15 mg/kg (CS27109-M, MGL-3196) oral once a day 4 weeks, mean ± SD, model 102 ± 36, normal 0.75 ± 12",113 ± 38 µmol/g
same,TG,"[4]; HFD SD rat serum, 15 mg/kg (CS27109-M, MGL-3196) oral once a day 4 weeks, mean ± SD, model 0.82 ± 0.73, normal 0.53 ± 0.34",0.11 ± 0.03^∗∗∗ mmol/L
same,HDL-c,"[4]; HFD SD rat serum, 15 mg/kg (CS27109-M, MGL-3196) oral once a day 4 weeks, mean ± SD, model 1.2 ± 0.44, normal 1.1 ± 0.13",0.94 ± 0.26 mmol/L
same,LDL-c,"[4]; HFD SD rat serum, 15 mg/kg (CS27109-M, MGL-3196) oral once a day 4 weeks, mean ± SD, model 9.7 ± 6.1, normal 0.28 ± 0.06",1.1 ± 0.65 mmol/L
same,TC,"[4]; HFD SD rat serum, 15 mg/kg (CS27109-M, MGL-3196) oral once a day 4 weeks, mean ± SD, model 20 ± 13, normal 1.5 ± 0.20",3.3 ± 1.3 mmol/L
same,ALT,"[4]; HFD SD rat serum, 15 mg/kg (CS27109-M, MGL-3196) oral once a day 4 weeks, mean ± SD, model 166 ± 95, normal 32 ± 6.8",74 ± 24 U/L
same,AST,"[4]; HFD SD rat serum, 15 mg/kg (CS27109-M, MGL-3196) oral once a day 4 weeks, mean ± SD, model 365 ± 212, normal 103 ± 21",185 ± 66 U/L
same,NAS score,"[4]; HFD SD rat, 4 weeks, 15 mg/kg, vs model","tendency to reduce the NAS score, but without significance"
same,liver steatosis score (H and E),"[4]; HFD SD rat, 4 weeks, CS27109 5-45 mg/kg dose-dependent, MGL3196 15 mg/kg, vs model",lessened steatosis
same,LDL-c,"[5]; WD + CCL4 mouse serum, 10 mg/kg (CS27109-M, MGL-3196) oral once a day 4 weeks, mean ± SD, model 1.1 ± 0.35, normal 0.43 ± 0.04",0.33 ± 0.05 mmol/L
same,TG,"[5]; WD + CCL4 mouse serum, 10 mg/kg (CS27109-M, MGL-3196) oral once a day 4 weeks, mean ± SD, model 1.2 ± 0.34, normal 0.91 ± 0.14",1.0 ± 0.23 mmol/L
same,HDL-c,"[5]; WD + CCL4 mouse serum, 10 mg/kg (CS27109-M, MGL-3196) oral once a day 4 weeks, mean ± SD, model 1.5 ± 0.25, normal 2.0 ± 0.08",1.2 ± 0.13 mmol/L
same,TC,"[5]; WD + CCL4 mouse serum, 10 mg/kg (CS27109-M, MGL-3196) oral once a day 4 weeks, mean ± SD, model 4.1 ± 0.97, normal 3.0 ± 0.10",1.9 ± 0.17 mmol/L
same,CK activity,"[5]; WD + CCL4 mouse serum, 10 mg/kg (CS27109-M, MGL-3196) oral once a day 4 weeks, mean ± SD, model 345 ± 268, normal 334 ± 193",197 ± 129 U/L
same,AST,"[5]; WD + CCL4 mouse serum, 10 mg/kg (CS27109-M, MGL-3196) oral once a day 4 weeks, mean ± SD, model 10245 ± 4955, normal 116 ± 71",2178 ± 769 U/L
same,ALT,"[5]; WD + CCL4 mouse serum, 10 mg/kg (CS27109-M, MGL-3196) oral once a day 4 weeks, mean ± SD, model 14003 ± 4205, normal 54 ± 15",4658 ± 1639 U/L
same,liver inflammation score (H and E),[5]; [9],notable reduction
same,liver steatosis score (H and E),[5]; [9],notable reduction
same,area of liver fibrosis (sirius red),"[5]; WD + CCL4 mouse, 4 weeks, three doses of CS27109 (3, 10, 30 mg/kg), MGL3196 10 mg/kg, vs model",prominently reduced the area of the fibrosis
